Where a name gives a salt, the structure may show the parent alone. Read-outs that look alike come from different tables or passages of the source.
Columns and labels:
[1] = Tendency to form solvates (acetone); format: physicochemical; conditions: generally acetone as the solvent
Description: Additionally the inventive salts are not prone to forming solvates. Solvates with organic solvents such as acetone, dichloromethane, dioxane, etc., are inconvenient in pharmaceutical applications because of the toxicity of the solvent. […] A typical example of such a solvate salt is the acetone solvate of olanzapine succinate. The solvent may nevertheless be present in the wet cake of the crude material after isolation in solid state, but a solvent-free product should be obtained by ordinary means of drying. A solvent-free salt (i.e. less than 0.5%, preferably less than 0.1%, of the solvent present) is particularly preferred as the absence of the solvent is advantageous for pharmaceutical applications.

Stability against light = format: physicochemical
Hygroscopicity = format: physicochemical
[2] = Water solubility test at 10 mg/ml; conditions: thermodynamic from solid
[3] = cited from earlier work
[4] = Isolation of the olanzapine salt in solid form; format: physicochemical
[5] = Stability of 1% aqueous solution against precipitation; conditions: for Is 1% solution stable from precipitation?: 1% aqueous solution, at least 12 to 24 hours (overnight)
Description: (§1) A failure was considered to be 1% or more of impurities being formed; i.e. if 1% or more formed, then the salt is reported as “No,” not stable, for the corresponding test.

[6] = Solid state stability (impurity formation on storage); format: physicochemical; conditions: short period of storage
Description: as §1

Compound	Is there low tendency to form solvates? [1]	Readily isolatable in solid form? [4]	Is 1% solution stable from precipitation? [5]	also measured
Cc1cc2c(s1)Nc1ccccc1N=C2N1CCN(C)CC1.O=C(O)C(O)C(O)C(=O)O.O=C(O)C(O)C(O)C(=O)O [Di-L-tartrate, reference compound]	No			
Cc1cc2c(s1)Nc1ccccc1N=C2N1CCN(C)CC1.O=C(O)C=CC(=O)O.O=C(O)C=CC(=O)O [Dimaleate, reference compound]	No			
Cc1cc2c(s1)Nc1ccccc1N=C2N1CCN(C)CC1.Cc1cc2c(s1)Nc1ccccc1N=C2N1CCN(C)CC1.O=C(O)CCCCC(=O)O [Hemiadipate, Olanzapine Hemi-Adipate]	Yes			
Cc1cc2c(s1)Nc1ccccc1N=C2N1CCN(C)CC1.Cc1cc2c(s1)Nc1ccccc1N=C2N1CCN(C)CC1.O=S(=O)(O)O [Hemisulfate, reference compound]	No			
Cc1cc2c(s1)Nc1ccccc1N=C2N1CCN(C)CC1.O=C(O)CC(=O)O [Hydrogenmalonate, Olanzapine Hydrogenmalonate]	Yes			stability against the action of light (Stability against light): sufficiently stable against the action of light; hygroscopicity (Hygroscopicity): generally non-hygroscopic
CC(O)C(=O)O.Cc1cc2c(s1)Nc1ccccc1N=C2N1CCN(C)CC1 [Mono-L-lactate, Olanzapine Lactate]	Yes			
Cc1cc2c(s1)Nc1ccccc1N=C2N1CCN(C)CC1.O=C(O)c1ccccc1 [Monobenzoate, Olanzapine Benzoate]	Yes			stability against the action of light (Stability against light): sufficiently stable against the action of light; hygroscopicity (Hygroscopicity): generally non-hygroscopic
CCS(=O)(=O)O.Cc1cc2c(s1)Nc1ccccc1N=C2N1CCN(C)CC1 [Monoesylate, Olanzapine Esylate]	Yes			
Cc1cc2c(s1)Nc1ccccc1N=C2N1CCN(C)CC1 [Monohydrochloride, Olanzapine Monohydrochloride]				solubility [2]: > 10000 µg/mL
Cc1cc2c(s1)Nc1ccccc1N=C2N1CCN(C)CC1.O=S(=O)(O)O [Monosulfate, Olanzapine Hydrogensulfate]	No			
Cc1cc2c(s1)Nc1ccccc1N=C2N1CCN(C)CC1.O.O=C(O)c1cc2ccccc2c(Cc2c(O)c(C(=O)O)cc3ccccc23)c1O [Pamoate, olanzapine pamoate, reference compound]	No			water solubility (in words), background [3]: insoluble in water
Mandelate [reference compound]		No		
Olanzapine				water solubility (in words), background [3]: insoluble in water; solubility at pH 6.8 ([3]; pH 6.8, marketed free base): 0.02 mg/ml
Olanzapine Acetate [Monoacetate]	Yes	Yes	No	
Olanzapine Besylate [Monobesylate]	Yes	Yes	No	
Olanzapine Hemi-Succinate [Hemisuccinate]	No	Yes	No	
Olanzapine Hemifumarate	No	Yes	No	
Olanzapine Hydrogenmaleate	Yes	Yes	No	stability against the action of light (Stability against light): sufficiently stable against the action of light; hygroscopicity (Hygroscopicity): generally non-hygroscopic; water solubility (in words) (listed as maleate): good water solubility; water solubility (in words) (listed as olanzapine hydrogenmaleate): soluble in water; hydrolysis by water (liberation of olanzapine base in aqueous solution) ([5]; aqueous solution): hydrolysable by water
Olanzapine Mesylate [Monomesylate]	No	Yes	No	
Olanzapine Mono-Tartrate [Mono-L-tartrate]	No	Yes	Yes	
Tosylate [reference compound]		No		
olanzapine dibesylate [reference compound]		Yes**		solid state behaviour on storage [6]: become oily after a short period of storage
olanzapine dimesylate [reference compound]		Yes**		solid state behaviour on storage [6]: become oily after a short period of storage
